Results on 30 compounds are retold here after patent US11396517B1, “Exo-aza spiro inhibitors of menin-MLL interaction” (Janssen Pharmaceutica NV, priority 2017, dated 2022).

Experiment [1] addresses T1, menin (Homo sapiens, UniProt O00255, T541A).
T1 construct: Menin (a.a. 1-610-6×his tag)
T1 sequence (O00255 with tags, fused parts or gaps T541A): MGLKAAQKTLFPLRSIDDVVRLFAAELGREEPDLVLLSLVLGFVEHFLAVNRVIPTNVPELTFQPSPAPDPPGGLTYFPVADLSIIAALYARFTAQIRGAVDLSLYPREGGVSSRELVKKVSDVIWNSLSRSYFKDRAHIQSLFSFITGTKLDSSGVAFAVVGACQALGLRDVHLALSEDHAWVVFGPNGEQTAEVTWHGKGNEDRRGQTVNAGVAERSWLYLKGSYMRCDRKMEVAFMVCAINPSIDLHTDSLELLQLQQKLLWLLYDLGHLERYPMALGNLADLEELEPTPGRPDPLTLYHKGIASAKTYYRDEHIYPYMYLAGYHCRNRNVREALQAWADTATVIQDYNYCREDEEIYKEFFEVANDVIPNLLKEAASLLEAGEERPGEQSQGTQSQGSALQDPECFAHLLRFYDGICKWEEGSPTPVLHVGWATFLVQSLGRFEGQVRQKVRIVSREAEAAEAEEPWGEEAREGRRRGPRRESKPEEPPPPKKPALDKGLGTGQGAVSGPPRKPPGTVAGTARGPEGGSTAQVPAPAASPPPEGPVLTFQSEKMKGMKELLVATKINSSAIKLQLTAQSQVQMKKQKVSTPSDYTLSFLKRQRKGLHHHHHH
Kind of experiment: Menin/MLL homogenous time-resolved fluorescence (HTRF) assay. It is filed as binding. The method in brief: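 Displacement of 75 nM FITC-MBM1 from terbium-cryptate-labeled His-tagged menin 1-610 ([…]) was read as the 520/490 nm HTRF ratio. Compound (11-point, 3-fold series) got 5 min with menin before peptide, then 15 min at ambient; 0.5% DMSO, Tris pH 7.5.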
A general note: In TR-FRET formats the signal depends on donor and acceptor labels being close together.

Experiment [2] has as its system MOLM14. Kind of experiment: Proliferation assay B (spheroid assay) MOLM14. Type of experiment: cell-based, human. The conditions noted are these: MOLM14 cells, confluence at day 8, absolute IC50, read-out: (3b) Spheroid assay MOLM14 (IC50(μM)) Assay B. On the procedure: 3b) Proliferation Assay B
The anti-proliferative effect of menin/MLL protein/protein interaction inhibitor test compounds was assessed in human leukemia cell lines. The cell lines MV-4-11 and MOLM14 harbor MILL translocations and express the MILL fusion proteins MLL-AF4 and MLL-AF9, respectively, as well as the wildtype protein from the second allele. […] K562 was used as a control cell line containing two MLL wildtype alleles in order to exclude compounds that display general cytotoxic effects.
MV-4-11 and MOLM14 were cultured in RPMI-1640 (Sigma Aldrich) supplemented with 10% fetal bovine serum (HyClone), 2 mM L-glutamine (Sigma Aldrich) and 50 μg/ml gentamycin (Gibco). K562 were propagated in RPMI-1640 (Sigma Aldrich) supplemented with 20% fetal bovine serum (HyClone), 2 mM L-glutamine (Sigma Aldrich) and 50 μg/ml gentamycin (Gibco).
In order to assess the anti-proliferative effects, 1,500 MV-4-11, 300 MOLM14 cells or 750 K562 cells were seeded in 200 μl media per well in 96-well round bottom, ultra-low attachment plates (Costar, catalogue number 7007). Cell seeding numbers were chosen based on growth curves to ensure linear growth throughout the experiment. Test compounds were added at different concentrations and the DMSO content was normalized to 0.3%. Cells were incubated for 8 d at 37° C. and 5% CO2. Spheroid like growth was measured in real-time by live-cell imaging (IncuCyteZOOM, Essenbio, 4× objective) acquiring images at day 8. Confluence (%) as a measure of spheroid size was determined using an integrated analysis tool.
In order to determine the effect of the test compounds over time, the confluence in each well as a measure of spheroid size, was calculated. Confluence […] at the beginning of the experiment (t=0) was used as baseline for the calculation.
Absolute IC50 values were calculated as percent change in confluence as follows:
LC=Low Control: cells treated with 1 μM of the cytotoxic agent staurosporin
HC=High Control: Mean confluence (%) (DMSO treated cells) % Effect=100−(100*(Sample−LC)/(HC−LC))
To determine the IC50 a curve is fitted to the plot of % Effect vs Log 10 compound concentration using a sigmoidal fit with a variable slope and fixing the maximum to 100% and the minimum to 0%.

[3] abbreviates: location 2, read-out: (2) location 2 Menin HTRF assay (IC50 (nM)).

As a reminder, the IC50 is the concentration that inhibits the measured activity by half.

Read-outs that look alike come from different tables or passages of the source. Some results are limits rather than exact numbers.

On to `CS(=O)(=O)N1CCN(Cc2ccc(NC3CC4(CCN(c5ncnc6sc(CC(F)(F)F)cc56)C4)C3)cc2)CC1` (mixture of isomers) [Compound 351], for which the concentration for half-maximal inhibition (IC50) in experiment [1] (setting [3]) stood at 15.5 nM; in experiment [2] (Homo sapiens, MOLM-14, 192 h) it was 3.51 µM.

As for `Nc1nc(N2CCC3(CC(Nc4ccc5[nH]c(=O)[nH]c5c4)C3)C2)c2cc(CC(F)(F)F)sc2n1` (mixture of isomers) [Compound 381], the half-maximal inhibitory concentration (IC50) in experiment [1] (setting [3]) is 9.4 nM; in experiment [2] (Homo sapiens, MOLM-14, 192 h), more than 3.75 µM.

With `CNC(=O)c1ccc(NC2CC3(CCN(c4ncnc5sc(CC(F)(F)F)cc45)C3)C2)c(Cl)c1` (single isomer, unassigned) [Compound 69], the concentration for half-maximal inhibition (IC50) in experiment [1] (setting [3]) amounted to 1.7 nM; in experiment [2], 0.69 µM.

Turning to `CN1CCC(c2cc(NC3CC4(CCN(c5ncnc6sc(CC(F)(F)F)cc56)C4)C3)ccc2C#N)CC1` (single isomer, unassigned) [Compound 80], the results for the half-maximal inhibitory concentration (IC50) in experiment [1] (setting [3]) and in experiment [2] were 8.7 nM and 0.95 µM, respectively.

As to `COCCNC(=O)c1ccc(NC2CC3(CCN(c4ncnc5sc(CC(F)(F)F)cc45)C3)C2)cc1` (single isomer, unassigned) [Compound 86], the IC50 in experiment [1] (setting [3]) was 91.8 nM; in experiment [2] (Homo sapiens, MOLM-14, 192 h), more than 3.75 µM.

As for `O=C(NCCN1CCOCC1)c1ccc(NC2CC3(CCN(c4ncnc5sc(CC(F)(F)F)cc45)C3)C2)cc1` (single isomer, unassigned) [Compound 88], the IC50 in experiment [1] (setting [3]) was 3.8 nM; in experiment [2] (Homo sapiens, MOLM-14, 192 h), 0.99 µM.

Turning to `Cn1c(=O)[nH]c2cc(NC3CC4(CCN(c5ncnc6sc(CC(F)(F)F)cc56)C4)C3)ccc21` (single isomer, unassigned) [Compound 90], the IC50 in experiment [1] (setting [3]) stood at 20.2 nM; in experiment [2] (Homo sapiens, MOLM-14, 192 h), 0.85 µM.

`CS(=O)(=O)N[C@H]1CC[C@H](NC2CC3(CCN(c4ncnc5sc(CC(F)(F)F)cc45)C3)C2)CC1` (single isomer, unassigned) [Compound 103]: the IC50 is 1160 nM in experiment [1] (location 1, read-out: (2) location 1 Menin HTRF assay (IC50 (nM))); 1200 nM in experiment [1] (setting [3]); more than 3.75 µM in experiment [2] (Homo sapiens, MOLM-14, 192 h).

For the compound `N#Cc1ccc(NC2CC3(CCN(c4ncnc5sc(CC(F)(F)F)cc45)C3)C2)nc1` (single isomer, unassigned) [Compound 175], the concentration for half-maximal inhibition (IC50) was 33.4 nM in experiment [1] (setting [3]) and 1.09 µM in experiment [2].

Take `CS(=O)(=O)N1CCN(C(=O)c2ccc(NC3CC4(CCN(c5ncnc6sc(CC(F)(F)F)cc56)C4)C3)cc2)CC1` (single isomer, unassigned) [Compound 178]: the IC50 in experiment [1] (setting [3]) was 127 nM; in experiment [2] (Homo sapiens, MOLM-14, 192 h), more than 3.75 µM.

On to `COC1CCN(C(=O)c2ccc(NC3CC4(CCN(c5ncnc6sc(CC(F)(F)F)cc56)C4)C3)cc2)CC1` (single isomer, unassigned) [Compound 183], for which the IC50 is 82 nM in experiment [1] (setting [3]) and more than 3.75 µM in experiment [2] (Homo sapiens, MOLM-14, 192 h).

With `O=C(c1ccc(NC2CC3(CCN(c4ncnc5sc(CC(F)(F)F)cc45)C3)C2)cc1)N1CCNCC1` (single isomer, unassigned) [Compound 187], the IC50 in experiment [1] (setting [3]) was 1580 nM; in experiment [2] (Homo sapiens, MOLM-14, 192 h), more than 3.75 µM.

For the compound `CS(=O)(=O)N1CCN(CCNC(=O)c2ccc(NC3CC4(CCN(c5ncnc6sc(CC(F)(F)F)cc56)C4)C3)cc2)CC1` (single isomer, unassigned) [Compound 189], the IC50 in experiment [1] (setting [3]) is 143 nM; in experiment [2] (Homo sapiens, MOLM-14, 192 h) it was more than 3.75 µM.

Turning to `CS(=O)(=O)N1CCN(CCNC(=O)c2ccc(NC3CC4(CCN(c5ncnc6sc(CC(F)(F)F)cc56)C4)C3)cc2)CC1` (single isomer, unassigned) [Compound 190], the half-maximal inhibitory concentration (IC50) in experiment [1] (setting [3]) was found to be 9.2 nM; in experiment [2] it was 2.1 µM.

`CNC(=O)c1ccc(NC2CC3(CCN(c4ncnc5sc(CC(F)(F)F)cc45)C3)C2)cc1F` (single isomer, unassigned) [Compound 205]: the IC50 in experiment [1] (setting [3]) turned out to be 2.2 nM; in experiment [2] (Homo sapiens, MOLM-14, 192 h) it was 1.02 µM.

`CNC(=O)c1ccc(NC2CC3(CCN(c4ncnc5sc(CC(F)(F)F)cc45)C3)C2)cn1` (single isomer, unassigned) [Compound 217]: the IC50 is 3.7 nM in experiment [1] (setting [3]) and 1.69 µM in experiment [2].

For the compound `CNC(=O)c1ccc(NC2CC3(CCN(c4ncnc5sc(CC(F)(F)F)cc45)C3)C2)cn1` (single isomer, unassigned) [Compound 218], the IC50 was 64.9 nM in experiment [1] (setting [3]) and more than 3.75 µM in experiment [2].

On to `O=S(=O)(c1ccc(NC2CC3(CCN(c4ncnc5sc(CC(F)(F)F)cc45)C3)C2)cc1)N1CCOCC1` (single isomer, unassigned) [Compound 219], for which the IC50 in experiment [1] (setting [3]) worked out at 2.6 nM; in experiment [2] (Homo sapiens, MOLM-14, 192 h) it was 2.4 µM.

Consider `CNC(=O)c1ccc(NC2CC3(CCN(c4ncnc5sc(CC(F)(F)F)cc45)C3)C2)c(F)c1F` (single isomer, unassigned) [Compound 227], for which the values for the IC50 in experiment [1] (setting [3]) and in experiment [2] were 80.2 nM and more than 3.75 µM, respectively.

For `CNC(=O)c1cc(F)c(NC2CC3(CCN(c4ncnc5sc(CC(F)(F)F)cc45)C3)C2)c(F)c1` (single isomer, unassigned) [Compound 228], the IC50 was 84.2 nM in experiment [1] (setting [3]) and more than 3.75 µM in experiment [2].

Turning to `CNC(=O)c1cc(F)c(NC2CC3(CCN(c4ncnc5sc(CC(F)(F)F)cc45)C3)C2)c(F)c1` (single isomer, unassigned) [Compound 229], the IC50 is 0.9 nM in experiment [1] (setting [3]) and 1 µM in experiment [2].

In the case of `CNC(=O)c1ccc(NC2CC3(CCN(c4ncnc5sc(CC(F)(F)F)cc45)C3)C2)cc1C1CCN(C)CC1` (single isomer, unassigned) [Compound 230], the half-inhibitory concentration (IC50) is 489 nM in experiment [1] (setting [3]) and more than 3.75 µM in experiment [2] (Homo sapiens, MOLM-14, 192 h).

As to `CN1CCC(c2cc(NC3CC4(CCN(c5ncnc6sc(CC(F)(F)F)cc56)C4)C3)ccc2C(=O)N2CCOCC2)CC1` (single isomer, unassigned) [Compound 232], the concentration for half-maximal inhibition (IC50) was 667 nM in experiment [1] (setting [3]) and more than 3.75 µM in experiment [2] (Homo sapiens, MOLM-14, 192 h).

Consider `CC(C#N)(C#N)c1ccc(NC2CC3(CCN(c4ncnc5sc(CC(F)(F)F)cc45)C3)C2)cc1` (single isomer, unassigned) [Compound 234], for which the IC50 was 116 nM in experiment [1] (setting [3]) and more than 3.75 µM in experiment [2].

Turning to `CC(C#N)(C#N)c1ccc(NC2CC3(CCN(c4ncnc5sc(CC(F)(F)F)cc45)C3)C2)cc1` (single isomer, unassigned) [Compound 235], the values for the IC50 in experiment [1] (setting [3]) and in experiment [2] were 4.1 nM and 1.53 µM, respectively.

Turning to `CN(C)CCNC(=O)c1ccc(NC2CC3(CCN(c4ncnc5sc(CC(F)(F)F)cc45)C3)C2)c(F)c1` (single isomer, unassigned) [Compound 242], the IC50 in experiment [1] (setting [3]) is 74.6 nM; in experiment [2], more than 3.75 µM.

Turning to `CN(C)CCNC(=O)c1ccc(NC2CC3(CCN(c4ncnc5sc(CC(F)(F)F)cc45)C3)C2)c(F)c1` (single isomer, unassigned) [Compound 243], the figures for the IC50 in experiment [1] (setting [3]) and in experiment [2] were 2.9 nM and 1.11 µM, respectively.

Turning to `CNC(=O)c1c(F)cc(NC2CC3(CCN(c4ncnc5sc(CC(F)(F)F)cc45)C3)C2)cc1F` (single isomer, unassigned) [Compound 245], the IC50 was 7.7 nM in experiment [1] (setting [3]) and more than 3.75 µM in experiment [2] (Homo sapiens, MOLM-14, 192 h).

With `CN(C)CCNC(=O)c1ccc(NC2CC3(CCN(c4ncnc5sc(CC(F)(F)F)cc45)C3)C2)nc1` (single isomer, unassigned) [Compound 253], the results for the IC50 in experiment [1] (setting [3]) and in experiment [2] were 235 nM and more than 3.75 µM, respectively.

For `O=C(c1cnc(NC2CC3(CCN(c4ncnc5sc(CC(F)(F)F)cc45)C3)C2)nc1)N1CCOCC1` (single isomer, unassigned) [Compound 258], the IC50 in experiment [1] (setting [3]) was 108 nM; in experiment [2] (Homo sapiens, MOLM-14, 192 h), more than 3.75 µM.
